Source: US11168093B2, “Thienopyridine inhibitors of RIPK2” (Celgene Corporation, priority 2018, dated 2021)

Each compound was assayed against RIPK2 enzyme (Homo sapiens (Human), UniProt O43353) (assay: RIPK2 inhibition assay, TR-FRET LanthaScreen Tracer 199 screening assay). Conditions: 5 nM RIPK2 enzyme, Tracer 199 at 50 nM, Eu-anti-His Antibody at 2 nM, 1 hour incubation.
RIPK2 enzyme, sequence (O43353 whole entry): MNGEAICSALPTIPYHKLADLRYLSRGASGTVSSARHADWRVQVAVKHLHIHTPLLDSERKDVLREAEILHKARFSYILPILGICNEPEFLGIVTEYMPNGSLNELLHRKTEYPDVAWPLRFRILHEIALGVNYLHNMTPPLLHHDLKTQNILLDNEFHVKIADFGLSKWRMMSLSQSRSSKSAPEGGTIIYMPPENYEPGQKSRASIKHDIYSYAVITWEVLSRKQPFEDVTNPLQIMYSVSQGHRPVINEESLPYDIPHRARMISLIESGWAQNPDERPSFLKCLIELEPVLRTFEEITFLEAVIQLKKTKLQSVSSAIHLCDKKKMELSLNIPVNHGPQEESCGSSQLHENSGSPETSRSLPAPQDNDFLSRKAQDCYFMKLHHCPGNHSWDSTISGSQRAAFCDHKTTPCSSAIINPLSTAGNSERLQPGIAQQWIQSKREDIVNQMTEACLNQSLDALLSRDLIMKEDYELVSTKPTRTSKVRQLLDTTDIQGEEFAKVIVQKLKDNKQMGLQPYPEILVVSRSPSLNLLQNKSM
Assay type: binding
Procedure, shortened: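 TR-FRET binding displacement: 5 nM RIPK2, 50 nM Tracer 199, 2 nM Eu-anti-His antibody in 1× kinase reaction buffer, 1 h, read at room temperature (340 ex/665 and 615 em). No-enzyme background subtracted; percent inhibition versus uninhibited controls, IC50 from unconstrained variable-slope fit.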
For CC1NCCCCC1c1cc2c(Nc3c(F)cc4scnc4c3F)ccnc2s1 (single isomer, unassigned) [Example 118d, 4,6-difluoro-N-(2-(2-methylazepan-3-yl)thieno[2,3-b]pyridin-4-yl)benzo[d]thiazol-5-amine], the IC50 was 10 to 20 nM.
With C[C@H]1NCCC[C@H]1c1cc2c(Nc3ccc4scnc4c3F)ccnc2s1 [Example 56b, 4-fluoro-N-(2-((2R,3R)-2-methyl-piperidin-3-yl)thieno[2,3-b]pyridin-4-yl)benzo[d]thiazol-5-amine] the IC50 was at most 10 nM.
CC1NCCCCC1c1cc2c(Nc3cc4ncsc4cc3F)ccnc2s1 (stereo not drawn) [Example 117c] gave an IC50 of at most 10 nM.
C[C@@H]1NCCC=C1c1cc2c(Nc3c(F)cc4scnc4c3F)ccnc2s1 [Example 66b, (S)-4,6-difluoro-N-(2-(2-methyl-1,2,5,6-tetrahydropyridin-3-yl)thieno[2,3-b]pyridin-4-yl)-benzo[d]thiazol-5-amine] gave an IC50 of at most 10 nM.
CCN1CCC(c2cc3c(Nc4ccc5scnc5c4)ccnc3s2)C1(C)C (stereo not drawn) [Example 37, N-(2-(1-ethyl-2,2-dimethylpyrrolidin-3-yl)thieno[2,3-b]pyridin-4-yl)benzo[d]thiazol-5-amine] gave an IC50 of at most 10 nM.
Compound C1=C(c2cc3c(Nc4ccc5scnc5c4)ccnc3s2)C2(CCOCC2)NC1 [Example 46, N-(2-(8-oxa-1-azaspiro[4.5]dec-3-en-4-yl)thieno[2,3-b]pyridin-4-yl)benzo[d]thiazol-5-amine] has an IC50 of at most 10 nM.
Compound CC1(C)NCCC1c1cc2c(Nc3ccc4scnc4c3F)ccnc2s1 (stereo not drawn) [Example 90, N-(2-(2,2-dimethylpyrrolidin-3-yl)thieno[2,3-b]pyridin-4-yl)-4-fluorobenzo[d]thiazol-5-amine] has an IC50 of at most 10 nM.
With CC1(C)C(c2cc3c(Nc4ccc5scnc5c4)ccnc3s2)CCN1CCO (stereo not drawn) [Example 38, 2-(3-(4-(benzo[d]thiazol-5-ylamino)thieno[2,3-b]pyridin-2-yl)-2,2-dimethylpyrrolidin-1-yl)ethan-1-ol] the IC50 was at most 10 nM.
In the case of CCN1CCC[C@H](c2cc3c(Nc4c(F)cc5scnc5c4F)ccnc3s2)[C@@H]1C [Example 74b, N-(2-((2S,3S)-1-ethyl-2-methylpiperidin-3-yl)thieno[2,3-b]pyridin-4-yl)-4,6-difluorobenzo[d]thiazol-5-amine], the IC50 is reported as at most 10 nM.
CC1C(c2cc3c(Nc4ccc5scnc5c4)c(F)cnc3s2)CCCN1C (stereo not drawn) [Example 120, N-(2-(1,2-dimethylpiperidin-3-yl)-5-fluorothieno[2,3-b]pyridin-4-yl)benzo[d]-thiazol-5-amine] was tested, and the IC50 was at most 10 nM.
For CC1C(c2cc3c(Nc4ccc5scnc5c4)ccnc3s2)CCCN1C1COC1 (stereo not drawn) [Example 17, N-(2-(2-methyl-1-(oxetan-3-yl)piperidin-3-yl)thieno[2,3-b]pyridin-4-yl)benzo[d]thiazol-5-amine], the IC50 was 10 to 20 nM.
CC1NCCCC1c1cc2c(Nc3ccc4scnc4c3F)c(F)cnc2s1 (single isomer, unassigned) [Example 124d, 4-fluoro-N-(5-fluoro-2-(2-methylpiperidin-3-yl)thieno[2,3-b]pyridin-4-yl)benzo[d]thiazol-5-amine] showed an IC50 of at least 50 nM.
CC1NCCCC1c1cc2c(Nc3c(F)cc4scnc4c3F)c(F)cnc2s1 (stereo not drawn) [Example 126a, 4,6-difluoro-N-(5-fluoro-2-(2-methylpiperidin-3-yl)thieno[2,3-b]pyridin-4-yl)benzo[d]thiazol-5-amine] showed an IC50 of at most 10 nM.
Work on CCN1CCC[C@@H](c2cc3c(Nc4ccc5scnc5c4F)ccnc3s2)[C@H]1C [Example 64, N-(2-((2R,3R)-1-ethyl-2-methylpiperidin-3-yl)thieno[2,3-b]pyridin-4-yl)-4-fluorobenzo[d]thiazol-5-amine] yielded an IC50 of at most 10 nM.
Work on CC(=O)N1CCC=C(c2cc3c(Nc4ccc5scnc5c4)ccnc3s2)C1C (stereo not drawn) [Example 9, 1-(5-(4-(benzo[d]thiazol-5-ylamino)thieno[2,3-b]pyridin-2-yl)-6-methyl-3,6-dihydropyridin-1(2H)-yl)ethan-1-one] yielded an IC50 of 10 to 20 nM.
CC1NCCCC1c1cc2c(Nc3cc4ncsc4cc3F)c(F)cnc2s1 (stereo not drawn) [Example 122a, 6-fluoro-N-(5-fluoro-2-(2-methylpiperidin-3-yl)thieno[2,3-b]pyridin-4-yl) benzo[d]thiazol-5-amine] showed an IC50 of at least 50 nM.
For CCN1CC=C(c2cc3c(Nc4ccc5scnc5c4)ccnc3s2)C12CCOCC2 [Example 47, N-(2-(1-ethyl-8-oxa-1-azaspiro[4.5]dec-3-en-4-yl)thieno[2,3-b]pyridin-4-yl)benzo[d]thiazol-5-amine], the IC50 was at most 10 nM.
CC1C(c2cc3c(Nc4ccc5scnc5c4)ccnc3s2)CCN1CCO (stereo not drawn) [Example 31, 2-(3-(4-(benzo[d]thiazol-5-ylamino)thieno[2,3-b]pyridin-2-yl)-2-methylpyrrolidin-1-yl)ethan-1-ol] showed an IC50 of at most 10 nM.
For C[C@H]1NCCC[C@@H]1c1cc2c(Nc3c(F)cc4scnc4c3F)ccnc2s1 [Example 67a, 4,6-difluoro-N-(2-((2R,3S)-2-methylpiperidin-3-yl)thieno[2,3-b]pyridin-4-yl)benzo[d]thiazol-5-amine], the IC50 was at most 10 nM.
Work on CC1C(c2cc3c(Nc4c(F)cc5scnc5c4F)ccnc3s2)CCN1CCO (stereo not drawn) [Example 95, 2-(3-(4-((4,6-difluorobenzo[d]thiazol-5-yl)amino)thieno[2,3-b]pyridin-2-yl)-2-methyl-pyrrolidin-1-yl)ethan-1-ol] yielded an IC50 of 10 to 20 nM.
In the case of CC1(C)NCC=C1c1cc2c(Nc3ccc4scnc4c3)ccnc2s1 [Example 32, N-(2-(2,2-dimethyl-2,5-dihydro-1H-pyrrol-3-yl)thieno[2,3-b]pyridin-4-yl)benzo[d]thiazol-5-amine], the IC50 is reported as at most 10 nM.
In the case of CC1C(c2cc3c(Nc4ccc5scnc5c4)ccnc3s2)CCN1C (stereo not drawn) [Example 28, N-(2-(1,2-dimethylpyrrolidin-3-yl)thieno[2,3-b]pyridin-4-yl)benzo[d]thiazol-5-amine], the IC50 is reported as at most 10 nM.
CCN1CCCC(c2cc3c(Nc4ccc5scnc5c4)ccnc3s2)C1C (stereo not drawn) [Example 6, N-(2-(1-ethyl-2-methylpiperidin-3-yl)thieno[2,3-b]pyridin-4-yl)benzo[d]thiazol-5-amine] gave an IC50 of at most 10 nM.
Compound C[C@H]1NCCC=C1c1cc2c(Nc3cc4ncsc4cc3F)ccnc2s1 [Example 49a, 6-fluoro-N-(2-(2-methyl-1,2,5,6-tetrahydropyridin-3-yl)thieno[2,3-b]pyridin-4-yl)benzo[d]thiazol-5-amine] has an IC50 of 10 to 20 nM.
For CC1NCC=C1c1cc2c(Nc3ccc4scnc4c3)ccnc2s1 (stereo not drawn) [Example 25, N-(2-(2-methyl-2,5-dihydro-1H-pyrrol-3-yl)thieno[2,3-b]pyridin-4-yl)benzo[d]thiazol-5-amine], the IC50 was at most 10 nM.
Work on CC1C(c2cc3c(Nc4c(F)cc5scnc5c4F)c(F)cnc3s2)CCCN1C (single isomer, unassigned) [Example 127a] yielded an IC50 of 20 to 50 nM.
In the case of C1=C(c2cc3c(Nc4ccc5scnc5c4)ccnc3s2)CCNCC1 [Example 105, N-(2-(2,3,6,7-tetrahydro-1H-azepin-4-yl)thieno[2,3-b]pyridin-4-yl)benzo[d]thiazol-5-amine], the IC50 is reported as at most 10 nM.
Work on CCN1CCCC(c2cc3c(Nc4ccc5scnc5c4)ccnc3s2)CC1 (stereo not drawn) [Example 110, N-(2-(1-ethylazepan-4-yl)thieno[2,3-b]pyridin-4-yl)benzo[d]thiazol-5-amine] yielded an IC50 of at most 10 nM.
With C[C@@H]1NCCC[C@@H]1c1cc2c(Nc3cc4ncsc4cc3F)ccnc2s1 [Example 51b] the IC50 was 20 to 50 nM.
For CC1C(c2cc3c(Nc4ccc5scnc5c4)c(F)cnc3s2)CCCN1C (single isomer, unassigned) [Example 120d, N-(2-(1,2-dimethylpiperidin-3-yl)-5-fluorothieno[2,3-b]pyridin-4-yl)benzo[d]-thiazol-5-amine], the IC50 was at least 50 nM.
With CC1NCCC1c1cc2c(Nc3ccc4scnc4c3F)ccnc2s1 (stereo not drawn) [Example 87, 4-fluoro-N-(2-(2-methylpyrrolidin-3-yl)thieno[2,3-b]pyridin-4-yl)benzo[d]thiazol-5-amine] the IC50 was at most 10 nM.
Compound CC1C(c2cc3c(Nc4ccc5scnc5c4)ccnc3s2)=CCN1C (stereo not drawn) [Example 27, N-(2-(1,2-dimethyl-2,5-dihydro-1H-pyrrol-3-yl)thieno[2,3-b]pyridin-4-yl)benzo[d]thiazol-5-amine] has an IC50 of at most 10 nM.
C1=C(c2cc3c(Nc4ccc5scnc5c4)ccnc3s2)C2(COC2)NC1 [Example 39, N-(2-(2-oxa-5-azaspiro[3.4]oct-7-en-8-yl)thieno[2,3-b]pyridin-4-yl)benzo[d]thiazol-5-amine] gave an IC50 of at most 10 nM.
Compound C1=C(c2cc3c(Nc4ccc5scnc5c4)ccnc3s2)C2(CCOC2)NC1 (stereo not drawn) [Example 40, N-(2-(7-oxa-1-azaspiro[4.4]non-3-en-4-yl)thieno[2,3-b]pyridin-4-yl)benzo[d]thiazol-5-amine] has an IC50 of at most 10 nM.
For CCN1CCC(c2cc3c(Nc4c(F)cc5scnc5c4F)ccnc3s2)C1C (stereo not drawn) [Example 94, N-(2-(1-ethyl-2-methylpyrrolidin-3-yl)thieno[2,3-b]pyridin-4-yl)-4,6-difluorobenzo[d]thiazol-5-amine], the IC50 was at most 10 nM.
Compound CC1NCCCC1c1cc2c(Nc3ccc4scnc4c3)c(F)cnc2s1 (stereo not drawn) [Example 119, N-(5-fluoro-2-(2-methylpiperidin-3-yl)thieno[2,3-b]pyridin-4-yl)benzo[d]thiazol-5-amine] has an IC50 of 20 to 50 nM.
With CCN1CCC(c2cc3c(Nc4ccc5scnc5c4)ccnc3s2)C12CCOC2 (stereo not drawn) [Example 45, N-(2-(1-ethyl-7-oxa-1-azaspiro[4.4]nonan-4-yl)thieno[2,3-b]pyridin-4-yl)benzo[d]thiazol-5-amine] the IC50 was 10 to 20 nM.
CCN1CCC[C@@H](c2cc3c(Nc4cc5ncsc5cc4F)ccnc3s2)[C@H]1C [Example 53b, N-(2-((2R)-1-ethyl-2-methylpiperidin-3-yl)thieno[2,3-b]pyridin-4-yl)-6-fluorobenzo[d]thiazol-5-amine] gave an IC50 of at most 10 nM.
CC1NCCC1c1cc2c(Nc3c(F)cc4scnc4c3F)ccnc2s1 (stereo not drawn) [Example 93, 4,6-difluoro-N-(2-(2-methylpyrrolidin-3-yl)thieno[2,3-b]pyridin-4-yl)benzo[d]thiazol-5-amine] was tested, and the IC50 was at most 10 nM.
